Counter-ions that a name gives are not always drawn.
Experiments:
HCT116 [1] = details: 72 h
Procedure: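 HCT116 control and MTA1-KO (CRISPR) HCT116 cells were seeded in 384-well plates (800 cells/well), treated 16 h later with 237 metabolism-related anticancer drugs at five doses (10 uM, 2 uM, 400 nM, 80 nM, 16 nM) for 72 h, two replicates; viability by CCK8. Values are % inhibition of viability relative to untreated cells, plus fitted IC50.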

HCT116 [2] = assay: viability inhibition vs untreated; higher = more cytotoxic; details: 72 h

Row | Compound | IC50 (HCT116 [1]; genotype: MTA1-KO) [µM] | IC50 (HCT116 [1]; genotype: control) [µM] | viability inhibition (HCT116 [2]; genotype: MTA1-KO, 16 nM) [%] | viability inhibition (HCT116 [2]; genotype: MTA1-KO, 80 nM) [%] | viability inhibition (HCT116 [2]; genotype: MTA1-KO, 400 nM) [%] | viability inhibition (HCT116 [2]; genotype: MTA1-KO, 2000 nM) [%] | viability inhibition (HCT116 [2]; genotype: MTA1-KO, 10000 nM) [%] | viability inhibition (HCT116 [2]; genotype: control, 16 nM) [%] | viability inhibition (HCT116 [2]; genotype: control, 80 nM) [%] | viability inhibition (HCT116 [2]; genotype: control, 400 nM) [%] | viability inhibition (HCT116 [2]; genotype: control, 2000 nM) [%] | viability inhibition (HCT116 [2]; genotype: control, 10000 nM) [%]
1 | CC1=NS(=O)(=O)c2cc(Cl)ccc2N1 [Diazoxide] | > 10 | > 10 | 7.55 | 5.32 | 16.2 | 16 | 35.1 | 3.13 | 23.2 | 0.951 | 4.98 | 3.64
2 | Cc1nc(-c2nc(-c3ccc(OC(F)(F)F)cc3)no2)nn1Cc1cccc(N2CCC(S(C)(=O)=O)CC2)c1 | > 10 | > 10 | 1.35 | 25 | 26.2 | 29.9 | 45.9 | 13.9 | 17.5 | 21.8 | 14.5 | 23.9
3 | O=c1cc(-c2ccc(O)c(O)c2)oc2cc(O)cc(O)c12 [Luteolin] | > 10 | > 10 | -5.43 | -9.09 | -11.5 | -2.12 | 7.81 | 2.79 | 2.36 | 3.47 | 12.7 | 12.7
4 | COc1ccc2[nH]c([S@@+]([O-])Cc3ncc(C)c(OC)c3C)nc2c1 [Esomeprazole Magnesium] | > 10 | > 10 | 2.7 | 2.87 | 3.11 | 1.54 | 3.86 | 16.3 | 11.1 | 18 | 11.9 | 21.2
5 | COc1ccc2[nH]cc(CCNC(C)=O)c2c1 [Melatonine] | > 10 | > 10 | 11.6 | 12.1 | 6.76 | 7.43 | 8.55 | 10.2 | 9.39 | 9.78 | 24.1 | 14.5
6 | O=C(O)c1ccc2c(c1)nc(Nc1cccc(Cl)c1)c1ccncc12 [Silmitasertib] | > 10 | > 10 | -17.2 | -23.7 | -18.2 | -24.2 | -22 | 7.6 | -9.55 | -4.38 | -8.94 | -1.95
7 | CC(C)c1c(C(=O)Nc2ccccc2)c(-c2ccccc2)c(-c2ccc(F)cc2)n1CC[C@@H](O)C[C@@H](O)CC(=O)O [Atorvastatin Calcium] | > 10 | > 10 | -2.27 | -15.2 | -21.3 | -22.7 | -6.12 | 6.18 | -8.85 | -7.43 | -3.65 | 17
8 | CCC(C)(Oc1ccc(C2(c3ccc(OC(C)(CC)C(=O)O)cc3)CCCCC2)cc1)C(=O)O (stereo not drawn) [Clinofibrate] | > 10 | > 10 | 12.9 | 5.15 | 19.9 | 28 | 51.7 | -13.2 | -10 | -7.17 | -15.8 | 0.951
9 | CC(=O)c1ccc2c(c1)c1cc(C(C)=O)ccc1n2CCNC(C)C [CBL0137 hydrochloride] | 0.379 | 0.355 | -9.26 | -16.6 | 65.6 | 114 | 109 | 7.74 | -9.1 | 81.5 | 108 | 103
10 | COc1cnc(NS(=O)(=O)c2ccc(N)cc2)nc1 [Sulfameter] | > 10 | > 10 | -10.8 | -13.8 | -0.547 | -4.82 | -3.61 | 0.414 | 5.13 | 12.1 | 8.51 | 0.478
11 | Nc1ccccc1S(N)(=O)=O [2-Aminobenzenesulfonamide] | > 10 | > 10 | -12 | -6.34 | -8.18 | -6.12 | -8.74 | -4.67 | -10.5 | -7.82 | -0.883 | 19.7
12 | CCCCCCCCCCCCc1ccc(S(=O)(=O)Nc2nncs2)cc1 [PHT427] | > 10 | > 10 | -19.3 | -22.1 | -13 | -17.1 | -3.56 | 20.4 | -3.89 | -1.76 | -0.669 | 9.06
13 | C/C=C/c1cc(OC)c(OC)cc1OC [alpha-Asarone] | > 10 | > 10 | -3.55 | -23.5 | -15.1 | -10.5 | 9.18 | -6.36 | -8.84 | -15.6 | -8.42 | -0.859
14 | O=[N+]([O-])c1ccc(Nc2ccccc2-c2ccccc2)c2nonc12 | 8.18 | > 10 | 2.01 | -8.53 | -10.8 | -6.96 | 68.6 | 9.25 | 24.7 | 13.3 | 14.3 | 23.9
15 | O=C(c1ccc(NS(=O)(=O)c2cccc3cccnc23)cc1)N1CCN(CC2CC2)CC1 [Mitapivat] | > 10 | > 10 | 1.32 | 0.728 | -12.6 | -14.4 | -2.88 | -8.53 | -14.2 | -22.8 | -10.3 | -12.3
16 | COc1ccccc1OCC(O)COC(N)=O (stereo not drawn) [Methocarbamol] | > 10 | > 10 | -9.86 | -16.2 | -9.99 | -8.84 | -12 | -5.51 | -3.73 | -0.351 | 5.2 | 11
17 | O=C(NCCCNc1nc(Nc2cccc(NC(=O)N3CCCC3)c2)ncc1I)c1cccs1 [BX795] | > 10 | > 10 | -13.8 | -8.82 | -26.4 | -9.81 | -6.85 | -1.4 | -15 | -1.64 | 18.7 | 7.91
18 | Cc1ccccc1C(C(=O)NC1CCCCC1)N(C(=O)Cn1ccnc1C)c1cccc(F)c1 (stereo not drawn) [AGI5198] | > 10 | > 10 | 7.58 | 7.91 | 5.76 | 8.57 | 37.4 | -3.24 | -17.7 | -10.7 | -12.3 | 2.37
19 | O=C(Oc1cc(S(=O)(=O)c2ccccc2)ccc1[N+](=O)[O-])c1ccc(Cl)cc1 | > 10 | > 10 | 13.8 | 11.7 | 15.7 | 20 | -32.5 | -2.81 | -4.51 | -7.2 | -8.31 | 16.7

Reference: the supplement of paper PMC10477900
